Measured values published in patent publication US5607967A, “Treatment of alzheimer's disease with 5-(tetradecyloxy)-2-furan carboxylic acid” (Merck & Co., Inc., priority 1994, dated 1997).
Entries after “also recorded” stand apart in the source; their conditions may differ. Read-outs that look alike come from different tables or passages of the source.

Assays:
[1] = test system: Dopamine D2 receptor antagonist (Haloperidol) induced catalepsy; experiment: Haloperidol induced catalepsy (Bar method); assay type: in vivo, rat; conditions: for Catalepsy Duration: TOFA 0.4 mg/kg S.C. pretreatment
[2] = test system: acetyl-CoA carboxylase; conditions: high doses, i.e. 0.15% of diet; cited from earlier work
[3] = target: T1, GR/NUC chimeric receptor (Homo sapiens, UniProt Q03181); experiment: Ligand dependent transcription assay, GR/NUC chimeric receptor with MMTV-luciferase reporter; assay type: cell-based
T1 construct: transfected cells, MMTV-luciferase
T1 sequence (Q03181 1-441): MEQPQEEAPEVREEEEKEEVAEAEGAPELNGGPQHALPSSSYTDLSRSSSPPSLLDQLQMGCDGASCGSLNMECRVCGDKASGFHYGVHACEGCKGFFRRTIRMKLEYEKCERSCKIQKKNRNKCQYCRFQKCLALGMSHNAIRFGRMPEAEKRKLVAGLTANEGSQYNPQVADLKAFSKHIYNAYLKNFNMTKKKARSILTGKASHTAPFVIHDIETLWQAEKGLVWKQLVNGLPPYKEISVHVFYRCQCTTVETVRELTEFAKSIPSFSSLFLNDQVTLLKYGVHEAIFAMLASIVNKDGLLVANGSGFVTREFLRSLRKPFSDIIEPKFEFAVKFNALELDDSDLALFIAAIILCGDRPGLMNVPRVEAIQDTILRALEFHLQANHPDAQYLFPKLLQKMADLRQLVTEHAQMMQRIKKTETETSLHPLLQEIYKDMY
T1 sequence (P06537 1-792 partner): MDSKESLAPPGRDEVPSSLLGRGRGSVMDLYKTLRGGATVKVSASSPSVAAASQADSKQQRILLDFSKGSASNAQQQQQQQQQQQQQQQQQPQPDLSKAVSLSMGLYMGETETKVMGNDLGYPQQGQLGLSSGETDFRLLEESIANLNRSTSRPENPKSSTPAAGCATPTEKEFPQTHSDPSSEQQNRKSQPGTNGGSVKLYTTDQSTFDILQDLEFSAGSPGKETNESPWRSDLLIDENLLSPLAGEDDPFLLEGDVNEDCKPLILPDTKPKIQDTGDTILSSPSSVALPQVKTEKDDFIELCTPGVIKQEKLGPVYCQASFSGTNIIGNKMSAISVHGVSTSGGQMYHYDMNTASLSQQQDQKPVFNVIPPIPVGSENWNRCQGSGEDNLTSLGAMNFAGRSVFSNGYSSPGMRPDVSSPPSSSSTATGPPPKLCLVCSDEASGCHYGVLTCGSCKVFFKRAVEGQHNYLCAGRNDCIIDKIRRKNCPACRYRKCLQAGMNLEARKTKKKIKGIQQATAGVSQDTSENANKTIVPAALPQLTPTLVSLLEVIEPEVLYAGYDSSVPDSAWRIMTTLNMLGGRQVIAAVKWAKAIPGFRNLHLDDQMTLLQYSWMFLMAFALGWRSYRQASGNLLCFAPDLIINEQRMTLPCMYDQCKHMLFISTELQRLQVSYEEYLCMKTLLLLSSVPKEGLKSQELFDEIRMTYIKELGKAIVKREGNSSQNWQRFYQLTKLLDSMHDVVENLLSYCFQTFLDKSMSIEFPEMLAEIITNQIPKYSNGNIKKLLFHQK
Protocol: (§1) Similar hybrid receptors GR/NER, GR/NUC and GR/PPAR, in identical expression plasmid backgrounds were prepared essentially as described for the construction of the GR/mPPAR and GR/NUC chimeric receptors in Schmidt et al., "Identification of a new member of the steroid hormone receptor superfamily that is activated by a peroxisome proliferator and fatty acids," Mol. Endocrinol., 6(10):1634-41, 1992, and in Boie et al., "Enantioselective activation of the peroxisome proliferator-activated receptor", J. Biol. Chem. 268(8):5530-4, 1993.
(§2) Briefly, the amino terminal portion of the mouse glucocorticoid receptor (mGR), that includes the DNA binding domain was fused to the putative ligand binding domains of the nuclear receptor NER, hNUC-I (Schmidt et al., 1992), mPPAR (Issenmann and Green, 1990) to form the respective chimeric receptors GR/NER, GR/NUC and GR/PPAR. The GR/NER chimeric receptor was constructed as described for the GR/NUC and GR/PPAR hybrid receptors (Schmidt et al., 1992; Boie et al). The cDNA sequences coding for amino acids Arg^155 and Glu^156 of the NER receptor were converted to the Xho I restriction site, that was later used for the ligation to the GR cDNA sequences that coded for the DNA binding domain. Thus, converting amino acid residues Arg^155 and Glu^156 of NER receptor to amino acid residues Ser^155 and His^156.

[4] = test system: MMTV-luciferase reporter gene; experiment: Luciferase expression in cells transfected only with the MMTV-luciferase reporter gene; assay type: cell-based; conditions: no receptor transfected
Protocol: Transient transfection of COS and CV1 cells was performed as described (Schmidt 1992). Cells were plated (1.5×10^5 in 1 mL) into 12 well dishes in phenol red-free medium supplemented with activated charcoal treated fetal calf serum. The next day 0.12 mL of DNA 10 μg/ml (5 μg receptor DNA and 5 μg reporter plasmid), as a calcium phosphate precipitate, was added to the cells. Ligands were added to the cells 30 minutes after transfection. The next day (18 hours), the cells were washed and fresh ligands added. Twenty-four hours later, cell extracts were prepared and assayed for luciferase enzyme activity using the luciferase assay system (Promega Madison, Wis.). Each transfection was performed in triplicate and the luciferase activity of each sample measured in duplicate using the AutoClinilumat (Berthold Nashua, N.H.).

[5] = target: T2, GR/PPAR chimeric receptor (Mus musculus, UniProt P23204); experiment: Ligand dependent transcription assay, GR/PPAR chimeric receptor with MMTV-luciferase reporter; assay type: cell-based; conditions: read-out: Fold of stimulation GR/PPAR
T2 construct: COS cells, MMTV-luciferase
T2 sequence (P23204 1-468): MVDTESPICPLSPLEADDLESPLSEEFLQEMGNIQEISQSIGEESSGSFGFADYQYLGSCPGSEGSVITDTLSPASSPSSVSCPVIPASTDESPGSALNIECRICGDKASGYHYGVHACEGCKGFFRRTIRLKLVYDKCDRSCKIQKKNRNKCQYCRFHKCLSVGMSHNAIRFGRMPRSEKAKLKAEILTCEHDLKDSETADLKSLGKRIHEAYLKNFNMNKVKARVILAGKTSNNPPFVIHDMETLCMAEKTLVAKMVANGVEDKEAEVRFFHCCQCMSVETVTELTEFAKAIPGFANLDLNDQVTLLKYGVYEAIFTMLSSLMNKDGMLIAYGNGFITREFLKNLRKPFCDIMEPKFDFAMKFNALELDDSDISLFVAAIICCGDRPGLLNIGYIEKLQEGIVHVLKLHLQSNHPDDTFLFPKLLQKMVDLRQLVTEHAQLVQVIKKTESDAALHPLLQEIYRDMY
T2 sequence (P06537 1-792 partner): T1 sequence (P06537 1-792 partner)

[6] = test system: reporter gene under the control of the promoter of SV40; experiment: Luciferase expression with reporter gene under control of the SV40 promoter; assay type: cell-based
[7] = target: T2, GR/PPAR chimeric receptor; experiment: Ligand dependent transcription assay, GR/PPAR chimeric receptor with MMTV-luciferase reporter; assay type: cell-based
Protocol: as §1, §2
The ligand transcription assay mediated by GR/PPAR in COS cells was performed as described in Example 4. The cells were treated with TOFA and Cerulenin at 0.1, 1, 10 and 100 μM.

[8] = read-out: Fold of stimulation GR/NUC
[9] = COS, read-out: Fold of stimulation GR/PPAR

CCCCCCCCCCCCCCOc1ccc(C(=O)O)o1 [TOFA, 5-(tetradecyloxy)-2-furan carboxylic acid]
Catalepsy Duration ([1]; 24 h later 0.1 mg/kg Haloperidol): 28.9 ± 4.5 s | Catalepsy Duration ([1]; no challenge): 0 s | Effect of TOFA pretreatment on Haloperidol-induced catalepsy ([1]; TOFA 0.4 mg/kg S.C., 24 h before 0.1 mg/kg Haloperidol): did not significantly affect; also recorded: unaffected | Fatty acid synthesis in vivo [2]: inhibit fatty acid synthesis | Expression mediated by GR/NUC [3]: stimulated expression | fold induction at 2 µM [3, 8]: 1.95 ± 0.14 | fold induction at 10 µM [3, 8]: 2.85 ± 0.2 | fold induction at 50 µM [3, 8]: 3.19 ± 0.2 | Expression of luciferase, MMTV-luciferase reporter gene only [4]: did not stimulate the expression of luciferase | fold induction at 2 µM [5]: 2.89 ± 0.13 | fold induction at 20 µM [5]: 5.75 ± 0.14 | Expression of luciferase, reporter under SV40 promoter [6]: did not stimulate the expression of luciferase | Expression mediated by GR/PPAR [7]: stimulated expression | fold induction at 0.1 µM [7, 9]: 1.04 ± 0.14 | fold induction at 1 µM [7, 9]: 2.38 ± 0.16 | fold induction at 10 µM [7, 9]: 4.43 ± 0.23 | fold induction at 100 µM [7, 9]: 4.1 ± 0.52 | fold induction at 10 µM ([7]; read-out: Fold of stimulation GR/PPAR): 4.08 ± 0.1
